Experimental findings from US20240374579A1, “BICYCLIC PGDH INHIBITORS AND METHODS OF MAKING AND USING” (EPIRIUM BIO INC., priority 2021, published 2024) are described below.

For the experiment, the target named is T1, 15-PGDH/HPGD (Homo sapiens, UniProt P15428).
T1 construct: purchased R&D System 5660-DH
T1 sequence (P15428 1-266): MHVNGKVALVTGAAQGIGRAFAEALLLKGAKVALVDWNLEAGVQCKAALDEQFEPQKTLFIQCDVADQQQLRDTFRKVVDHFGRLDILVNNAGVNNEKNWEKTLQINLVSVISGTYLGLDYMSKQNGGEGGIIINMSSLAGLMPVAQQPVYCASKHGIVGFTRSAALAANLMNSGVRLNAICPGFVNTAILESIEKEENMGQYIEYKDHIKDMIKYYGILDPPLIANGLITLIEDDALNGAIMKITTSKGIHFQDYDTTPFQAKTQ
Briefly: hPGDH inhibitor screening biochemical assay. As to conditions: 10 nM enzyme, 15 μM PGE2, 0.25 mM NAD, fluorescence ex/em 340/485 nm. Here is the method:
A hydroxyprostaglandin dehydrogenase inhibition screening biochemical assay can be performed to assess the synthesized inhibitors provided herein. Provided herein is an exemplary biochemical assay for hPGDH inhibitor screening.
The in vitro biochemical assay can be performed in white, 384 plates in total 20 μl reaction volume consisting of 10 nM of 15-PGDH/HPGD (R&D System #5660-DH), 15 μM Prostaglandin E2 (Sigma, Cat #P5640-10MG) and 0.25 mM β-Nicotinamide adenine dinucleotide sodium salt (Sigma, Cat #N0632-5G) made in reaction buffer (50 mM Tris-HCl, pH 7.5, 0.01% Tween 20) at 10-point dose response curve for test/tool compounds. Briefly, 5 μl (4×) of compounds solution and 5 μl (final concentration, 10 nM) of enzyme solution is added to white 384 well plates and incubated for 10 mins at 37° C. 5 μl (4×) of Prostaglandin E2 and 5 μl (4×) of β-Nicotinamide adenine dinucleotide sodium salt is added to the wells and incubated for 10 mins at room temperature. Fluorescence is recorded at ex/em=340 nm/485 nm. The percentage ([…]) inhibition of enzyme activity was determined relative to positive control (1% DMSO) and IC50 was calculated using GraphPad prism software (four parameter-variable slope equation).

As usually defined, the IC50 is the concentration that inhibits the measured activity by half. Low values mean greater potency in that assay, high ones weaker potency in that assay.

With `O=C(O)c1ccc(-n2nnc3cc(C(=O)N4CCC(F)(F)CC4)cnc32)cc1` [Compound C-1, 4-(6-(4,4-difluoropiperidine-1-carbonyl)-3H-[1,2,3]triazolo[4,5-b]pyridin-3-yl)benzoic acid], the IC50 is < 0.1 µM.
In the case of `O=C(O)c1ccc(-n2ncc3cc(C(=O)N4CCC(F)(F)CC4)cnc32)cc1` [Compound C-2, 4-(5-(4,4-difluoropiperidine-1-carbonyl)-1H-pyrazolo[3,4-b]pyridin-1-yl) benzoic acid], the IC50 was < 0.1 µM.
Take `Cc1nc2cc(C(=O)N3CCC(F)(F)CC3)cnc2n1-c1ccc(C(=O)O)cc1` [Compound C-3, 4-(6-(4,4-difluoropiperidine-1-carbonyl)-2-methyl-3H-imidazo[4,5-b]pyridin-3-yl)benzoic acid]: the IC50 was < 0.1 µM.
Take `O=C(c1cnc2c(cnn2-c2ccc(-c3ncn[nH]3)nc2)c1)N1CCC(F)(F)CC1` [Compound C-4]: the IC50 was < 0.1 µM.
Take `O=C(c1cnc2c(c1)nnn2-c1ccc(-c2ncn[nH]2)nc1)N1CCC(F)(F)CC1` [Compound C-5, (3-(6-(1H-1,2,4-triazol-5-yl)pyridin-3-yl)-3H-[1,2,3]triazolo[4,5-b]pyridin-6-yl) (4,4-difluoropiperidin-1-yl)methanone]: the IC50 is < 0.1 µM.
`O=C(c1cnc2c(c1)nnn2-c1ccc(-c2ncn[nH]2)cc1)N1CCC(F)(F)CC1` [Compound C-7, (3-(4-(1H-1,2,4-triazol-5-yl)phenyl)-3H-[1,2,3]triazolo[4,5-b]pyridin-6-yl) (4,4-difluoropiperidin-1-yl)methanone]: the IC50 was < 0.1 µM.
The figure for `O=C(c1ccc2c(c1)nnn2-c1ccc(-c2ncn[nH]2)nc1)N1CCC(F)(F)CC1` [Compound C-9, (1-(6-(1H-1,2,4-triazol-5-yl)pyridin-3-yl)-1H-benzo[d][1,2,3]triazol-5-yl) (4,4-difluoropiperidin-1-yl)methanone] is 0.1 to 1 µM; for `O=C(c1ccc2c(c1)nnn2-c1ccc(-c2ncn[nH]2)cc1)N1CCC(F)(F)CC1` [Compound C-10, (1-(4-(1H-1,2,4-triazol-5-yl)phenyl)-1H-benzo[d][1,2,3]triazol-5-yl) (4,4-difluoropiperidin-1-yl)methanone] it is 0.1 to 1 µM.
In turn, `O=C(O)c1ccc(-n2nnc3cc(C(=O)N4CCC(F)(F)CC4)ccc32)cc1` [Compound C-11, 4-(5-(4,4-difluoropiperidine-1-carbonyl)-1H-benzo[d][1,2,3]triazol-1-yl) benzoic acid] returned an IC50 of 0.1 to 1 µM.
For `O=C(c1ccc2c(cnn2-c2ccc(-c3ncn[nH]3)nc2)c1)N1CCC(F)(F)CC1` [Compound C-12], the IC50 is < 0.1 µM.
As for `O=C(c1ccc2c(cnn2-c2ccc(-c3ncn[nH]3)cc2)c1)N1CCC(F)(F)CC1` [Compound C-13], the figure is < 0.1 µM; as for `O=C(O)c1ccc(-n2ncc3cc(C(=O)N4CCC(F)(F)CC4)ccc32)cc1` [Compound C-14, 4-(5-(4,4-difluoropiperidine-1-carbonyl)-1H-indazol-1-yl) benzoic acid], < 0.1 µM; as for `O=C(c1ccc2c(c1)ncn2-c1ccc(-c2ncn[nH]2)nc1)N1CCC(F)(F)CC1` [Compound C-15, (1-(6-(1H-1,2,4-triazol-5-yl)pyridin-3-yl)-1H-benzo[d]imidazol-5-yl)(4,4-difluoropiperidin-1-yl)methanone], 0.1 to 1 µM.
With `O=C(c1ccc2c(c1)ncn2-c1ccc(-c2ncn[nH]2)cc1)N1CCC(F)(F)CC1` [Compound C-16, (1-(4-(1H-1,2,4-triazol-5-yl)phenyl)-1H-benzo[d]imidazol-5-yl)(4,4-difluoropiperidin-1-yl)methanone], the IC50 is < 0.1 µM.
With `O=C(O)c1ccc(-n2cnc3cc(C(=O)N4CCC(F)(F)CC4)ccc32)cc1` [Compound C-17, 4-(5-(4,4-difluoropiperidine-1-carbonyl)-1H-benzo[d]imidazol-1-yl) benzoic acid], the IC50 was < 0.1 µM.
Turning to `C[C@H]1CCCN(C(=O)c2cnc3c(cnn3-c3ccc(-c4nnc[nH]4)nc3)c2)C1` [Compound C-20], the IC50 was < 0.1 µM.
Take `C[C@H]1CCN(C(=O)c2cnc3c(cnn3-c3ccc(-c4nnc[nH]4)nc3)c2)C1` [Compound C-21]: the IC50 was < 0.1 µM.
In the case of `O=C(c1cnc2c(cnn2-c2ccc(-c3nnc[nH]3)nc2)c1)N1CC2CCCC2C1` (stereo not shown) [Compound C-22], the IC50 is < 0.1 µM.
As for `CN(C)c1nc2ccc(-n3ncc4cc(C(=O)N5CCC(F)(F)CC5)cnc43)cn2n1` [Compound C-24], the IC50 was ≥ 1 µM.
Regarding `O=C(c1cnc2c(cnn2-c2ccc(-c3nnc[nH]3)cc2)c1)N1CCCC(F)(F)C1` [Compound C-31], the IC50 was < 0.1 µM.
The figure for `C[C@H]1CCCN(C(=O)c2cnc3c(cnn3-c3cncc(-c4nc[nH]n4)c3)c2)C1` [Compound C-34] is < 0.1 µM; for `C[C@H]1CCCN(C(=O)c2cnc3c(cnn3-c3cncc(C(N)=O)c3)c2)C1` [Compound C-35] it is < 0.1 µM.
On to `O=C(c1cnc2c(cnn2-c2cccc(-c3nnc[nH]3)c2)c1)N1CCC(F)(F)CC1` [Compound C-41, (1-(3-(4H-1,2,4-triazol-3-yl)phenyl)-1H-pyrazolo[3,4-b]pyridin-5-yl)(4,4-difluoropiperidin-1-yl)methanone], for which the IC50 was < 0.1 µM.
Regarding `O=C(c1cnc2c(cnn2-c2ccc(-c3nnc[nH]3)cc2)c1)N1CC2CC2C1` (stereo not shown) [Compound C-42], the IC50 lay within 0.1 to 1 µM.
Molecule `CCO[C@H]1CCN(C(=O)c2cnc3c(cnn3-c3ccc(-c4nnc[nH]4)cc3)c2)C1` [Compound C-43] returned an IC50 of 0.1 to 1 µM.
As for `CCO[C@@H]1CCN(C(=O)c2cnc3c(cnn3-c3ccc(-c4nnc[nH]4)cc3)c2)C1` [Compound C-44], the figure is ≥ 1 µM; as for `C[C@@H]1CCN(C(=O)c2cnc3c(cnn3-c3ccc(-c4nnc[nH]4)cc3)c2)C1` [Compound C-46], 0.1 to 1 µM; as for `C[C@H]1CCN(C(=O)c2cnc3c(cnn3-c3ccc(-c4nnc[nH]4)cc3)c2)C1` [Compound C-47], ≥ 1 µM.
Turning to `O=C(Nc1cccc(-n2ncc3cc(C(=O)N4CCC(F)(F)CC4)cnc32)c1)C1CC1` [Compound C-49], the IC50 was 0.1 to 1 µM.
The molecule `CC1(C)CCN(C(=O)c2cnc3c(cnn3-c3ccc(-c4nnc[nH]4)cc3)c2)C1` [Compound C-51] gave an IC50 of 0.1 to 1 µM.
As for `CCOC(=O)Nc1cncc(-n2ncc3cc(C(=O)N4CCC[C@H](C(F)(F)F)C4)cnc32)c1` [Compound C-54], the figure is 0.1 to 1 µM; as for `O=C(c1cnc2c(cnn2-c2ccc(-c3nnc[nH]3)cc2)c1)N1CCCC(C(F)(F)F)C1` (stereo not shown) [Compound C-58], 0.1 to 1 µM.
`C[C@@H]1CN(C(=O)c2cnc3c(cnn3-c3cc(Cl)cc(-c4nnc[nH]4)c3)c2)CCO1` [Compound C-60]: the IC50 is < 0.1 µM.
As for `CC(F)(F)[C@H]1CCN(C(=O)c2cnc3c(cnn3-c3ccc(-c4nnc[nH]4)cc3)c2)C1` [Compound C-61], the IC50 is < 0.1 µM.
As for `O=C(c1cnc2c(cnn2-c2cc(Cl)cc(-c3nnc[nH]3)c2)c1)N1CCC(F)(F)CC1` [Compound C-62], the figure is < 0.1 µM; as for `O=C(c1cnc2c(cnn2-c2ccc(-c3nnc[nH]3)c(F)c2)c1)N1CCC(F)(F)CC1` [Compound C-63], < 0.1 µM; as for `O=C(c1cnc2c(cnn2-c2ccc(-c3nnc[nH]3)c(F)c2)c1)N1CCSCC1` [Compound C-64], < 0.1 µM.
